Test [1] has as its system carbapenemase producing K. pneumoniae. In words: MIC by broth micro-dilution (CLSI), carbapenemase producing K. pneumoniae. Format: cell-based, Klebsiella pneumoniae. Particulars: Klebsiella pneumoniae, ATCCBAA1705, KPC-2 K. pneumoniae ATCC BAA-1705; read-out: MIC.
In test [2] the test system is carbapenem sensitive Pseudomonas aeruginosa. In words: MIC by broth micro-dilution (CLSI), carbapenem sensitive P. aeruginosa. Format: cell-based. The conditions noted are these: Pseudomonas aeruginosa, ATCC27853, Meropenem susceptible P. aeruginosa ATCC27853; read-out: MIC. A general note: Dilution methods test growth across graded concentrations, often in twofold steps.

Test [3] has as its system methicillin-sensitive Staphylococcus aureus. In words: MIC by broth micro-dilution (CLSI), methicillin-sensitive S. aureus. Format: cell-based. Particulars: Staphylococcus aureus, ATCC 29213 / MSSA, MSSA S. aureus ATCC29213; read-out: MIC.
The subject of test [4] is carbapenem sensitive Escherichia coli. In words: MIC by broth micro-dilution (CLSI), carbapenem sensitive E. coli. Particulars: Escherichia coli, ATCC25922, ESBL −ve E. coli ATCC25922; read-out: MIC. It is filed as cell-based.
Test [5] relates to extended spectrum β lactamase (ESBL) SHV18 producing Klebsiella pneumoniae. Nature of the test: MIC by broth micro-dilution (CLSI), ESBL SHV18 producing K. pneumoniae. It is filed as cell-based. The conditions noted are these: Klebsiella pneumoniae, ATCC700603, 22 h, ESBL +ve (SHV-18) K. pneumoniae ATCC700603; read-out: MIC.

Each structure is given as a SMILES string. Converted amounts (≈) assume the structure as drawn. A value given as a limit tells only on which side of the number the result lay.

Broadly, the MIC is the least concentration at which growth counts as inhibited. `C[C@@H](NC(=O)[C@@H]1CCCN1)[C@H]1C(=O)N2C(C(=O)O)=C(S[C@@H]3CN[C@H](C(=O)N(C)C)C3)[C@H](C)[C@H]12` [Example 228]: the MIC in test [1] is 8 µg/mL (≈ 16.7 µM); in test [2], 64 µg/mL (≈ 133 µM); in test [3] it was 64 µg/mL (≈ 133 µM); in test [4], 1 µg/mL (≈ 2.09 µM); in test [5] it was 4 µg/mL (≈ 8.34 µM).

In the case of `CCCNCC(=O)N[C@H](C)[C@H]1C(=O)N2C(C(=O)O)=C(S[C@@H]3CN[C@H](C(=O)N(C)C)C3)[C@H](C)C12` (stereo partly shown) [Example 139], the MIC in test [1] worked out at 4 µg/mL (≈ 8.31 µM); in test [2], 32 µg/mL (≈ 66.4 µM); in test [3] it was 32 µg/mL (≈ 66.4 µM); in test [4] it was 1 µg/mL (≈ 2.08 µM); in test [5] it was 4 µg/mL (≈ 8.31 µM).

For `C[C@@H](NC(=O)C(F)F)[C@H]1C(=O)N2C(C(=O)O)=C(S[C@@H]3CN[C@H](C(=O)N4CC[N+](C)(C)CC4)C3)[C@H](C)[C@H]12` [Example 45], the MIC in test [1] is 16 µg/mL; in test [2] it was 4 µg/mL; in test [3], 1 µg/mL; in test [4], 1 µg/mL; in test [5] it was 4 µg/mL.

Consider `C[C@@H](NC(=O)C(F)F)[C@H]1C(=O)N2C(C(=O)O)=C(SCCN)[C@H](C)[C@H]12` [Example 92], for which the minimum inhibitory concentration (MIC) stood at 4 µg/mL (≈ 11 µM) in test [1]; 32 µg/mL (≈ 88.1 µM) in test [2]; 1 µg/mL (≈ 2.75 µM) in test [3]; 0.5 µg/mL (≈ 1.38 µM) in test [4]; 4 µg/mL (≈ 11 µM) in test [5].

With `CNCCN(C)C(=O)[C@@H]1C[C@H](SC2=C(C(=O)O)N3C(=O)[C@H]([C@@H](C)NC(=O)C(F)F)[C@H]3[C@H]2C)CN1` [Example 163], the MIC came out at 4 µg/mL (≈ 7.94 µM) in test [1]; 8 µg/mL (≈ 15.9 µM) in test [2]; 1 µg/mL (≈ 1.99 µM) in test [3]; 1 µg/mL (≈ 1.99 µM) in test [4]; 4 µg/mL (≈ 7.94 µM) in test [5].

For the molecule `CC(C)CC(F)(F)C(=O)N[C@H](C)[C@H]1C(=O)N2C(C(=O)O)=C(S[C@@H]3CN[C@H](C(=O)N(C)C)C3)[C@H](C)[C@H]12` [Example 83], the MIC in test [1] is more than 128 µg/mL; in test [2], more than 128 µg/mL; in test [3] it was 2 µg/mL (≈ 3.87 µM); in test [4] it was 64 µg/mL (≈ 124 µM); in test [5], more than 128 µg/mL.

On to `C[C@H](N)C(=O)N[C@H](C)[C@H]1C(=O)N2C(C(=O)O)=C(S[C@@H]3CN[C@H](C(=O)N(C)C)C3)[C@H](C)[C@H]12` [Example 68], for which the minimum inhibitory concentration (MIC) in test [1] is more than 128 µg/mL; in test [2], 32 to 64 µg/mL (≈ 70.6 to 141 µM); in test [3], 32 µg/mL (≈ 70.6 µM); in test [4], 4 µg/mL (≈ 8.82 µM); in test [5] it was 8 µg/mL (≈ 17.6 µM).

Turning to `C[C@@H](NC(=O)C(F)F)[C@H]1C(=O)N2C(C(=O)O)=C(S[C@@H]3CN[C@H](C(=O)N(C)[C@H]4CCNC4)C3)[C@H](C)[C@H]12` [Example 134], the minimum inhibitory concentration (MIC) was determined as 4 µg/mL (≈ 7.76 µM) in test [1]; 16 µg/mL (≈ 31 µM) in test [2]; 2 µg/mL (≈ 3.88 µM) in test [3]; 1 µg/mL (≈ 1.94 µM) in test [4]; 4 µg/mL (≈ 7.76 µM) in test [5].

In the case of `C[C@@H](NC(=O)C(F)F)[C@H]1C(=O)N2C(C(=O)O)=C(S[C@@H]3CN[C@H](CNC(=O)N(C)C)C3)[C@H](C)[C@H]12` [Example 89], the MIC in test [1] amounted to 4 µg/mL (≈ 8.17 µM); in test [2] it was 128 µg/mL (≈ 261 µM); in test [3], 0.5 µg/mL (≈ 1.02 µM); in test [4], 0.5 µg/mL (≈ 1.02 µM); in test [5], 8 µg/mL (≈ 16.3 µM).

`CN[C@H]1CCN(C(=O)[C@@H]2C[C@H](SC3=C(C(=O)O)N4C(=O)[C@H]([C@@H](C)NC(=O)C(F)F)[C@H]4[C@H]3C)CN2)C1` [Example 106]: the MIC in test [1] was 4 µg/mL (≈ 7.76 µM); in test [2], 4 µg/mL (≈ 7.76 µM); in test [3], 4 µg/mL (≈ 7.76 µM); in test [4], 1 µg/mL (≈ 1.94 µM); in test [5] it was 4 µg/mL (≈ 7.76 µM).

Take `C[C@@H](NC(=O)C(F)F)[C@H]1C(=O)N2C(C(=O)O)=C(S[C@@H]3CN[C@H](C(=O)N(C)CCC(=O)N4CC[C@H](N)C4)C3)[C@H](C)[C@H]12` [Example 173]: the minimum inhibitory concentration (MIC) in test [1] was determined as 8 µg/mL (≈ 13.6 µM); in test [2], 16 µg/mL (≈ 27.3 µM); in test [3], 4 µg/mL (≈ 6.82 µM); in test [4], 2 µg/mL (≈ 3.41 µM); in test [5], 16 µg/mL (≈ 27.3 µM).

For the molecule `C[C@@H](NC(=O)C(F)F)[C@H]1C(=O)N2C(C(=O)O)=C(S[C@@H]3CN[C@H](C(=O)N4C[C@@H](N)C[C@H]4CO)C3)[C@H](C)[C@H]12` [Example 186], the MIC came out at 4 µg/mL (≈ 7.52 µM) in test [1]; 8 µg/mL (≈ 15 µM) in test [2]; 4 µg/mL (≈ 7.52 µM) in test [3]; 0.5 µg/mL (≈ 0.941 µM) in test [4]; 4 µg/mL (≈ 7.52 µM) in test [5].

For the molecule `C[C@@H](NS(=O)(=O)c1cccs1)[C@H]1C(=O)N2C(C(=O)O)=C(S[C@@H]3CN[C@H](C(=O)N(C)C)C3)[C@H](C)[C@@H]12` [Example 33], the MIC in test [1] is 16 µg/mL (≈ 30.3 µM); in test [2], more than 128 µg/mL; in test [3], 4 µg/mL (≈ 7.57 µM); in test [4], 4 µg/mL (≈ 7.57 µM); in test [5] it was 32 µg/mL (≈ 60.5 µM).

For `C[C@@H](NC(=O)C(F)F)[C@H]1C(=O)N2C(C(=O)O)=C(S[C@@H]3CN[C@H](C(=O)N4C[C@H](N)[C@@H](F)C4)C3)[C@H](C)[C@H]12` [Example 211], the MIC came out at 4 µg/mL (≈ 7.7 µM) in test [1]; 16 µg/mL (≈ 30.8 µM) in test [2]; 2 µg/mL (≈ 3.85 µM) in test [3]; 1 µg/mL (≈ 1.92 µM) in test [4]; 4 µg/mL (≈ 7.7 µM) in test [5].

On to `C[C@@H](NC(=O)C(F)F)[C@H]1C(=O)N2C(C(=O)O)=C(S[C@@H]3CN[C@H](C(=O)N4CCN(C)CC4)C3)[C@H](C)[C@H]12` [Example 43], for which the minimal inhibitory concentration (MIC) in test [1] came out at 8 µg/mL (≈ 15.5 µM); in test [2], 64 µg/mL (≈ 124 µM); in test [3], 2 µg/mL (≈ 3.88 µM); in test [4], 1 µg/mL (≈ 1.94 µM); in test [5], 4 µg/mL (≈ 7.76 µM).

As for `CN[C@@H]1CCN(C(=O)[C@@H]2C[C@H](SC3=C(C(=O)O)N4C(=O)[C@H]([C@@H](C)NC(=O)C(F)F)[C@H]4[C@H]3C)CN2)C1` [Example 149], the MIC worked out at 8 µg/mL (≈ 15.5 µM) in test [1]; 4 µg/mL (≈ 7.76 µM) in test [2]; 2 µg/mL (≈ 3.88 µM) in test [3]; 1 µg/mL (≈ 1.94 µM) in test [4]; 8 µg/mL (≈ 15.5 µM) in test [5].

`CNCCN(CC#N)C(=O)[C@@H]1C[C@H](SC2=C(C(=O)O)N3C(=O)[C@H]([C@@H](C)NC(=O)C(F)F)[C@H]3[C@H]2C)CN1` [Example 171]: the MIC was 128 µg/mL (≈ 242 µM) in test [1]; more than 128 µg/mL in test [2]; 2 µg/mL (≈ 3.78 µM) in test [3]; 4 µg/mL (≈ 7.57 µM) in test [4]; 128 µg/mL (≈ 242 µM) in test [5].

Take `C[C@@H](NS(C)(=O)=O)[C@H]1C(=O)N2C(C(=O)O)=C(S[C@@H]3CN[C@H](C(=O)N4CCOCC4)C3)[C@H](C)[C@H]12` [Example 27]: the MIC was 4 µg/mL (≈ 7.96 µM) in test [1]; 64 to 128 µg/mL (≈ 127 to 255 µM) in test [2]; 16 µg/mL (≈ 31.8 µM) in test [3]; 0.5 µg/mL (≈ 0.995 µM) in test [4]; 1 µg/mL (≈ 1.99 µM) in test [5].

For the molecule `C[C@@H](NC(=O)C(F)F)[C@H]1C(=O)N2C(C(=O)O)=C(S[C@@H]3CN[C@H](C(=O)N4CCN(C(=O)CN)CC4)C3)[C@H](C)[C@H]12` [Example 159], the minimum inhibitory concentration (MIC) in test [1] is 4 µg/mL (≈ 7.16 µM); in test [2], 8 µg/mL (≈ 14.3 µM); in test [3], 2 µg/mL (≈ 3.58 µM); in test [4], 1 µg/mL (≈ 1.79 µM); in test [5], 4 µg/mL (≈ 7.16 µM).

As to `C[C@@H](NC(=O)C(F)F)[C@H]1C(=O)N2C(C(=O)O)=C(S[C@@H]3CN[C@H](C(=O)N4C[C@H](N)[C@@H](N)C4)C3)[C@H](C)[C@H]12` [Example 194], the minimum inhibitory concentration (MIC) in test [1] is 16 µg/mL (≈ 31 µM); in test [2] it was 16 µg/mL (≈ 31 µM); in test [3], 8 µg/mL (≈ 15.5 µM); in test [4], 2 µg/mL (≈ 3.87 µM); in test [5], 8 µg/mL (≈ 15.5 µM).
